# Experimental data taken from article PMC4006998 (Nature chemical biology, 2009).
# What was measured:
# [1] = test system: O=C(Cc1cccs1)N[C@@H]1C(=O)N2C(C(=O)O)=C(/C=C/c3ccc([N+](=O)[O-])cc3[N+](=O)[O-])CS[C@H]12; assay: purified protein, by the assay type; conditions: other: substrate, 100 mM Tris-HCl pH 7.0, 19.0 °C
# AmpC β-lactamase [2] = target: T1, AmpC β-lactamase (Escherichia coli, UniProt P00811); format: biochemical; conditions: read-out: Km of nitrocefin for AmpC; substrate; 100 mM Tris-HCl pH 7.0
# CTX-M β-lactamase = CTX-M β-lactamase (Escherichia coli, UniProt Q9L5C8); format: biochemical; conditions: Ki AmpC versus Ki CTX-M
# AmpC β-lactamase [3] = target: T1, AmpC β-lactamase; conditions: at relevant concentrations; no reference given; cited from earlier work
# T1 sequence (P00811 20-377): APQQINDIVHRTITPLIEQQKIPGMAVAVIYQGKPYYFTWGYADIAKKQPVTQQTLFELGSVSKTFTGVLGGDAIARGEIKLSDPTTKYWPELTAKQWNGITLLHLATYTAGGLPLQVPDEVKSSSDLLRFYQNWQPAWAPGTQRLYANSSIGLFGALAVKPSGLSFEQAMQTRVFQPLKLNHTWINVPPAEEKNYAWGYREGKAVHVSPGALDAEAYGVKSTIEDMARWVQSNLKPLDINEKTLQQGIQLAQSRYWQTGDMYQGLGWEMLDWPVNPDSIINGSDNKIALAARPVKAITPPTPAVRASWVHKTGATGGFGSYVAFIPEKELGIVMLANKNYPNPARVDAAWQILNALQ
compound,measurement,setting,value
CTX-M β-lactamase (Escherichia coli),Km,[1],11.6 µM
O=C(Cc1cccs1)N[C@@H]1C(=O)N2C(C(=O)O)=C(/C=C/c3ccc([N+](=O)[O-])cc3[N+](=O)[O-])CS[C@H]12 [nitrocefin],Km,AmpC β-lactamase [2],400 µM
O=C(Nc1cccc(-c2nnn[nH]2)c1)c1cccc(F)c1 [Compound 12],specificity (CTX-M over AmpC),CTX-M β-lactamase,over 100 fold
O=C(O)[C@H]1/C(=C/CO)O[C@@H]2CC(=O)N21 [clavulanate],inhibition of AmpC,AmpC β-lactamase [3],does not inhibit AmpC at relevant concentrations
